Tests used:
[1] = ionizable site of leuprolide; cited from earlier work
[2] = Bioabsorption testing: leuprolide levels after inhalation of solution aerosol (radioimmunoassay); conditions: aerosol compared with comparable intravenous dose
[3] = no counterion

solubility of leuprolide ([3]; mixtures of ethyl alcohol and fluorocarbons): ~3000 µg/mL
equilibrium solubility of leuprolide ([3]; mixtures of fluorocarbons, ethyl alcohol and water): ~5000 µg/mL
Compound: CCNC(=O)[C@@H]1CCCN1C(=O)[C@H](CCCNC(=N)N)NC(=O)[C@H](CC(C)C)NC(=O)[C@@H](CC(C)C)NC(=O)[C@H](Cc1ccc(O)cc1)NC(=O)[C@H](CO)NC(=O)[C@H](Cc1c[nH]c2ccccc12)NC(=O)[C@H](Cc1c[nH]cn1)NC(=O)[C@@H]1CCC(=O)N1 [leuprolide, 5-Oxo-L-prolyl-L-histidyl-L-tryptophanyl-L-seryl-L-tyrosyl-D-leucyl-L-leucyl-L-arginyl-L-prolylethylamide acetate]
pKa, guanidine nitrogen of arginine [1]: approximately 13.0
pKa, imidazolyl nitrogen of histidine [1]: approximately 6.0
pKa, phenolic hydroxyl of tyrosine [1]: approximately 10.0
plasma peak concentration [2]: approximately equals that of a comparable dose administered intravenously

Reference: patent US4851211A, “LHRH analog formulations” (Abbott Laboratories, priority 1986, dated 1989)
